Data from article PMC5540273, “Progress towards a public chemogenomic set for protein kinases and a call for contributions” (PLoS ONE, 2017).

How the values were obtained:
Assay in all cases: KINOMEscan competition binding
CLK4 = CLK4 (Homo sapiens, UniProt Q9HAZ1); conditions: read-out: %Inh CLK4
EPHA2 = EPHA2 (Homo sapiens, UniProt P29317); conditions: read-out: %Inh EPHA2
CDK4-cyclinD1 = CDK4-cyclinD1 (Homo sapiens, UniProt P11802); conditions: read-out: %Inh CDK4-cyclinD1
MAP3K15 = molecular target: T1, MAP3K15 (Homo sapiens, UniProt Q6ZN16); conditions: read-out: %Inh MAP3K15
T1 sequence (Q6ZN16 1-1313): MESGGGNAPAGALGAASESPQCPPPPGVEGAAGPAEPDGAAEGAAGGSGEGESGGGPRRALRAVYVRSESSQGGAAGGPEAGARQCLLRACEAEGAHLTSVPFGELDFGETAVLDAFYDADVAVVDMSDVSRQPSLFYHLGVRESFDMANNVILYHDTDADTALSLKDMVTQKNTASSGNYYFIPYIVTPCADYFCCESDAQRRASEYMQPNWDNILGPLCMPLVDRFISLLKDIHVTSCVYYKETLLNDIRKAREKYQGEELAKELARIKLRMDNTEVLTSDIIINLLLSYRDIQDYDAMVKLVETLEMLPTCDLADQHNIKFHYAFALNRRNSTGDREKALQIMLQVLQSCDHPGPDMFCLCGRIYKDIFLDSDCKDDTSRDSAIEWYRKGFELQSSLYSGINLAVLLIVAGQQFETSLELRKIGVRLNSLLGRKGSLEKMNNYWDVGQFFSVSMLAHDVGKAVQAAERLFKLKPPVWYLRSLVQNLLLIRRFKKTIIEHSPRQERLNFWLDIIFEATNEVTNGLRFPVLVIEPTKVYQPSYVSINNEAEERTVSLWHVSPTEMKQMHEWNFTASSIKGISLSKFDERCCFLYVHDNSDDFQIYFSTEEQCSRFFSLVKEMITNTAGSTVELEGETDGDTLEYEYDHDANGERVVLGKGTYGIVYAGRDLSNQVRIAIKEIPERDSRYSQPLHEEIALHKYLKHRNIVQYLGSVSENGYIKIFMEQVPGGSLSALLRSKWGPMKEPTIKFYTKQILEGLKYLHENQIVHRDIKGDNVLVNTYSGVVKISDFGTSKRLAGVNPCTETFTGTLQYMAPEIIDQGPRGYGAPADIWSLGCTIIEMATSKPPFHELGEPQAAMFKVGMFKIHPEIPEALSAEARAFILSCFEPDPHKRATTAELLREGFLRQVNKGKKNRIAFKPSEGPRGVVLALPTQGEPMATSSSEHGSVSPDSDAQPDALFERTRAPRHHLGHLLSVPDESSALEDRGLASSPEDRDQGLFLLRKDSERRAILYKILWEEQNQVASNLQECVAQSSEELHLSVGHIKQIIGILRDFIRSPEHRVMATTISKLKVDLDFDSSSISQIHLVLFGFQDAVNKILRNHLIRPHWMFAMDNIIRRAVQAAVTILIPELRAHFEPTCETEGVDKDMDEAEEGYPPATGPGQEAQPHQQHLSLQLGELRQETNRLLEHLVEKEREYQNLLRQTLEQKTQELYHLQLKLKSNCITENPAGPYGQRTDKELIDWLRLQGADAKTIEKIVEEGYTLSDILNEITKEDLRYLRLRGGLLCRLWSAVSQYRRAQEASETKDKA

CDKL5 = molecular target: T2, CDKL5 (Homo sapiens, UniProt O76039); conditions: read-out: %Inh CDKL5
T2 sequence (O76039 1-960): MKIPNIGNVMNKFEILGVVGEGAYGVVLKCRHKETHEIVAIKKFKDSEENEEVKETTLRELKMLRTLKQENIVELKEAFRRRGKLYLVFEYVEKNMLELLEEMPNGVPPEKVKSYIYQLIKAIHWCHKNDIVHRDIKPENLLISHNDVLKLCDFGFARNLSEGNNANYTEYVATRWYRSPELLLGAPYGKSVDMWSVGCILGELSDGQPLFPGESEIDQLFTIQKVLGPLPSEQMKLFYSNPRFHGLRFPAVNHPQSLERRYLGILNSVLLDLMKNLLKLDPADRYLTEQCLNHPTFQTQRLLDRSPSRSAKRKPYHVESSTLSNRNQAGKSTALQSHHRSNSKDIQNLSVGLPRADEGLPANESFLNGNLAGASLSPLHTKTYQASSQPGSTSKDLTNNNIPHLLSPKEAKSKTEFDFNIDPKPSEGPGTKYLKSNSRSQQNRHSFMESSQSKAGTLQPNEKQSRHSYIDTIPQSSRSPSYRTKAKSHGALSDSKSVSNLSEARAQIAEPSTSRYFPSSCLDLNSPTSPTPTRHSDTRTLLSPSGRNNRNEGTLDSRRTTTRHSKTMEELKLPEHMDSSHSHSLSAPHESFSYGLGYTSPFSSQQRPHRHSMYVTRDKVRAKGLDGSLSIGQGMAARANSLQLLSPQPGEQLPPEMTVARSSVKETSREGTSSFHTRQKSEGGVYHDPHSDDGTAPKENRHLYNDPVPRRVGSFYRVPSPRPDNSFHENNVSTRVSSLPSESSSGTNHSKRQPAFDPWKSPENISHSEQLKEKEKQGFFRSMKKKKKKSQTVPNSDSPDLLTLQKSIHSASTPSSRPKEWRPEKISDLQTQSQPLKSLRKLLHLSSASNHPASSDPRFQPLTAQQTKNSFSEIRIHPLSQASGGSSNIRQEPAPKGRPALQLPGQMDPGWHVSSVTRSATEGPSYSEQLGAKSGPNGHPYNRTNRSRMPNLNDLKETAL

CDKL3 = CDKL3 (Homo sapiens, UniProt Q8IVW4); conditions: read-out: %Inh CDKL3
[1] = molecular target: JAK1(JH2domain-pseudokinase) (Homo sapiens, UniProt P23458); conditions: read-out: %Inh JAK1(JH2domain-pseudokinase)
ERN1 = ERN1 (Homo sapiens, UniProt O75460); conditions: read-out: %Inh ERN1
Chain of ERN1 (O75460 19-977): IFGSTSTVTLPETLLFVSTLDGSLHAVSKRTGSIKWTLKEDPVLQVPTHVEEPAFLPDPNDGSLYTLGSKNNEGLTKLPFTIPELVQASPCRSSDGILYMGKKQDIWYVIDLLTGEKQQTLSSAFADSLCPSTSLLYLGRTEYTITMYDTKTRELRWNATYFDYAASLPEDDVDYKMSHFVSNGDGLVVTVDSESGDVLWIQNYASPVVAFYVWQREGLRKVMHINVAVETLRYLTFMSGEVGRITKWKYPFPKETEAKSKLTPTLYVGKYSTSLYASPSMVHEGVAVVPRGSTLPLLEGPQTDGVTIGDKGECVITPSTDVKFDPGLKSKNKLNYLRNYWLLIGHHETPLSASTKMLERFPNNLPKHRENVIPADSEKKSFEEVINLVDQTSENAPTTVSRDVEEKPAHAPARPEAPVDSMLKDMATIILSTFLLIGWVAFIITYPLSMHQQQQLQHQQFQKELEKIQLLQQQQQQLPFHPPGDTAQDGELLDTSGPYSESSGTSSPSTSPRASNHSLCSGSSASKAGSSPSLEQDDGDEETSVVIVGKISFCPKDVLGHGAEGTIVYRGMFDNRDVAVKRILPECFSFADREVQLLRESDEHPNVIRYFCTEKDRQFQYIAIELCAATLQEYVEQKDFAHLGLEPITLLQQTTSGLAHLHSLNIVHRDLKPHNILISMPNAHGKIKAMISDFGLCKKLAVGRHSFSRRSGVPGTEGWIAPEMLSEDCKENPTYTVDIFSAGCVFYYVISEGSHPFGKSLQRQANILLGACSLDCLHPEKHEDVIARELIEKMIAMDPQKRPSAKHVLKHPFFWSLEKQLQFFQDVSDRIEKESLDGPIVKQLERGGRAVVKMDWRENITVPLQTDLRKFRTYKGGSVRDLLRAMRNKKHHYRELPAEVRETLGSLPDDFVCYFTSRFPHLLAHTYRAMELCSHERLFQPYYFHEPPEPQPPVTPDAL

Chain of CLK4 (Q9HAZ1 whole entry): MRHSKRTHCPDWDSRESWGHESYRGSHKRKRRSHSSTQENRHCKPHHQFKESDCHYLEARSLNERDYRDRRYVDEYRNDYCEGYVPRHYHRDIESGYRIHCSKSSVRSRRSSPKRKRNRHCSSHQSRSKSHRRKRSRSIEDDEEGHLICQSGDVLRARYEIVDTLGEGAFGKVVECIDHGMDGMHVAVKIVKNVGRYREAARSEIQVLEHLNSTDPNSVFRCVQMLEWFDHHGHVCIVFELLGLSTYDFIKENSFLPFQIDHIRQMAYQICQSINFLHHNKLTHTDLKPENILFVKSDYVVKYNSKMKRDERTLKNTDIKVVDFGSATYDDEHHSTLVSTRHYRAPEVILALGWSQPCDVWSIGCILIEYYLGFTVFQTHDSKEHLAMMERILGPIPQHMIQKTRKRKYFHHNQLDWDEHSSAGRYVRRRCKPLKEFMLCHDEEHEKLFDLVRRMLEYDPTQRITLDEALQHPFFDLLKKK
Chain of CDKL3 (Q8IVW4 whole entry): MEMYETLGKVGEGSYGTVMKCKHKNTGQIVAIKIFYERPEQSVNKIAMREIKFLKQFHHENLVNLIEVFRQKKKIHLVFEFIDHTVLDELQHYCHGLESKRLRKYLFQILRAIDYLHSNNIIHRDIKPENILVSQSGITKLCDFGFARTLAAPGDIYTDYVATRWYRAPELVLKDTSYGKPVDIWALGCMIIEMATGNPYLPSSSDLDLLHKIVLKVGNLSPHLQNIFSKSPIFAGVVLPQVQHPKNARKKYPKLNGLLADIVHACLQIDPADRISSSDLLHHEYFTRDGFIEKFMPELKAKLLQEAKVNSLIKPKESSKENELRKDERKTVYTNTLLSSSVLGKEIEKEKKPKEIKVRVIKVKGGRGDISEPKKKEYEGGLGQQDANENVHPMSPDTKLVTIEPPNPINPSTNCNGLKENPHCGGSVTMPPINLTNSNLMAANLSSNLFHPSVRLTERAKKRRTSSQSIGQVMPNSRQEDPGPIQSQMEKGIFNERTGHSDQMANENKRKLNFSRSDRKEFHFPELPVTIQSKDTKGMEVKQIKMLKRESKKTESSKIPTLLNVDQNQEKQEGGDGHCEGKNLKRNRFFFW
Chain of JAK1(JH2domain-pseudokinase) (P23458 578-855 limits assumed): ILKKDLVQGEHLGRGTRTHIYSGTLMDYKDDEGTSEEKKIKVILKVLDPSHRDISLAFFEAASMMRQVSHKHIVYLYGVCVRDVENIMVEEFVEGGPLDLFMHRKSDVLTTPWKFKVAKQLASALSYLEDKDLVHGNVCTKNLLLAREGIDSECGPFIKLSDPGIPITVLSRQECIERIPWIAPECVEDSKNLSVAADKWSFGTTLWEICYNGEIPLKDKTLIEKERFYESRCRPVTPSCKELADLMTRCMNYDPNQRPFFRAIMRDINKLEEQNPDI
Chain of CDK4-cyclinD1 (P11802 whole entry): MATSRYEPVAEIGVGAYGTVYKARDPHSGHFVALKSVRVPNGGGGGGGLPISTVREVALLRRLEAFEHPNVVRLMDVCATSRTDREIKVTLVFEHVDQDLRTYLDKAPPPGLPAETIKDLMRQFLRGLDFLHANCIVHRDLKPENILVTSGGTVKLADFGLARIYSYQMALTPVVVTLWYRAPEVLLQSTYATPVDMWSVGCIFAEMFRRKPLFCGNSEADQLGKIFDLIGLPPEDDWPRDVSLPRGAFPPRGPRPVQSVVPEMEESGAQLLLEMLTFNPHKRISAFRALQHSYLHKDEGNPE
Chain of CDK4-cyclinD1 (P24385 whole entry partner): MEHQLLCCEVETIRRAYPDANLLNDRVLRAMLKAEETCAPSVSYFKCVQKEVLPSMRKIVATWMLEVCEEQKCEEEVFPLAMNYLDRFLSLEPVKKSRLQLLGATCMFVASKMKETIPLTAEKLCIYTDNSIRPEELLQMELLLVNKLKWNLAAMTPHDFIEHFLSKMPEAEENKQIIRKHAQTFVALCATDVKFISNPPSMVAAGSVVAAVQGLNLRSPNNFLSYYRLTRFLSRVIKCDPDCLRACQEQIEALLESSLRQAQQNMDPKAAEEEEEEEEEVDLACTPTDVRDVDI
Chain of EPHA2 (P29317 24-976): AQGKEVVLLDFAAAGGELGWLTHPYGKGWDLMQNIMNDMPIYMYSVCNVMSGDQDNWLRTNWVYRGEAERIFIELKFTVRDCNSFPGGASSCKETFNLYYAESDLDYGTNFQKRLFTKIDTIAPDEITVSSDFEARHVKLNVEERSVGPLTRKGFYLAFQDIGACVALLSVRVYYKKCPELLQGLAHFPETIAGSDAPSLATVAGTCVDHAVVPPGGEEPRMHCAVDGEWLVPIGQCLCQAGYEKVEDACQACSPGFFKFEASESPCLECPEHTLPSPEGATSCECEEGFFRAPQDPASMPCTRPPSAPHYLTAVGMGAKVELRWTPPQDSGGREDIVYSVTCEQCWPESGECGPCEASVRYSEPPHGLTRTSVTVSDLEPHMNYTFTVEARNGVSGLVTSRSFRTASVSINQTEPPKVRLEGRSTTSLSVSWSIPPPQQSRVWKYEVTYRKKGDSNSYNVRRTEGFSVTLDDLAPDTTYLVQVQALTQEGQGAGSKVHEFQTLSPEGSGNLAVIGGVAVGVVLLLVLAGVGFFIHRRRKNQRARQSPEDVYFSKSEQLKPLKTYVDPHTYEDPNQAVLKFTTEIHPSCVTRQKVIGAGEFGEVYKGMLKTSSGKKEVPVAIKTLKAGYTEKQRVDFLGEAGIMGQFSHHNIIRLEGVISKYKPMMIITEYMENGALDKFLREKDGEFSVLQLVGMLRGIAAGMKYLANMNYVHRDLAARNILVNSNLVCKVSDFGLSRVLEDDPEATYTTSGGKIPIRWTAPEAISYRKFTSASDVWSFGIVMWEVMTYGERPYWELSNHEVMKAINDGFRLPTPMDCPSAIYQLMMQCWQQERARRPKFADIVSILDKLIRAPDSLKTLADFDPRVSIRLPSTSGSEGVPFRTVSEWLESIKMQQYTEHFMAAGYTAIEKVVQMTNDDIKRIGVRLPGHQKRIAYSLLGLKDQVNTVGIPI

Structure (SMILES) | inhibition at 1 µM (CLK4) | inhibition at 1 µM (EPHA2) | inhibition at 1 µM (CDK4-cyclinD1) | inhibition at 1 µM (MAP3K15) | inhibition at 1 µM (CDKL5) | inhibition at 1 µM (CDKL3) | inhibition at 1 µM [1] | inhibition at 1 µM (ERN1)
CS(=O)(=O)Cc1ccc(Nc2nccc(-c3c(-c4cccc(NC(=O)C5CCCCC5)c4)nn4ncccc34)n2)cc1 [UNC10225159A] | 0% | 51% | 15% | 38% | 33% | 0% | 0% | 33%
Cn1cc(-c2cnc(N)c3c(-c4ccc5c(c4)CCN5C(=O)Cc4ccccc4)csc23)cn1 [UNC10225012A] | 0% | 0% | 0% | 35% | 0% | 4% | 0% | 28%
O=c1cc(N2CCOCC2)nc2n(Cc3cccc(Cl)c3Cl)c(C3CC3)nn12 [UNC10225469A] | 0% | 0% | 0% | 0% | 0% | 0% | 3% | 0%
COc1cccc(OC)c1C(=O)Nc1cccc(-c2nn3ccccc3c2-c2ccnc(Nc3cccc(F)c3)n2)c1 [UNC10225310A] | 0% | 11% | 0% | 0% | 0% | 3% | 4% | 10%
Cc1ccc(NC(=O)Nc2cccc(C(F)(F)F)c2)cc1 [UNC10225187A] | 0% | 0% | 0% | 0% | 0% | 4% | 12% | 0%
